Results published in the supplement of paper PMC11451515.

Tested on: NOMO1
Assay: cell viability relative to DMSO control; higher = less cytotoxic
Details: 48 h
Method in brief: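 Cells were incubated for 48 h at 37°C before CellTiter-Glo One luminescence was read. The cells were NOMO1 or SEM (500 cells/well) or P12-Ichikawa (1000 cells/well) leukemia cells, adapted for at least four passages in each medium and seeded in 1536-well plates (5 μl). Dosing used library compounds in DMSO applied by pin over 11 threefold points, 47 μM to 0.79 nM. Viability is the per-plate percentage of DMSO wells, with cell-free wells as background.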

[1] = HPLM + 10% dialyzed FBS, 0.000781 µM
[2] = HPLM + 10% dialyzed FBS, 0.00234 µM
[3] = HPLM + 10% dialyzed FBS, 0.00702 µM
[4] = HPLM + 10% dialyzed FBS, 0.0211 µM
[5] = HPLM + 10% dialyzed FBS, 0.0632 µM
[6] = HPLM + 10% dialyzed FBS, 0.19 µM
[7] = HPLM + 10% dialyzed FBS, 0.569 µM
[8] = HPLM + 10% dialyzed FBS, 1.71 µM
[9] = HPLM + 10% dialyzed FBS, 5.12 µM
[10] = HPLM + 10% dialyzed FBS, 15.4 µM
[11] = HPLM + 10% dialyzed FBS, 46.1 µM
[12] = RPMI 5 mM glucose + 10% FBS, 0.000781 µM
[13] = RPMI 5 mM glucose + 10% FBS, 0.00234 µM
[14] = RPMI 5 mM glucose + 10% FBS, 0.00702 µM
[15] = RPMI 5 mM glucose + 10% FBS, 0.0211 µM
[16] = RPMI 5 mM glucose + 10% FBS, 0.0632 µM
[17] = RPMI 5 mM glucose + 10% FBS, 0.19 µM
[18] = RPMI 5 mM glucose + 10% FBS, 0.569 µM
[19] = RPMI 5 mM glucose + 10% FBS, 1.71 µM
[20] = RPMI 5 mM glucose + 10% FBS, 5.12 µM
[21] = RPMI 5 mM glucose + 10% FBS, 15.4 µM
[22] = RPMI 5 mM glucose + 10% FBS, 46.1 µM
[23] = RPMI 5 mM glucose + 10% dialyzed FBS, 0.000781 µM
[24] = RPMI 5 mM glucose + 10% dialyzed FBS, 0.00234 µM
[25] = RPMI 5 mM glucose + 10% dialyzed FBS, 0.00702 µM
[26] = RPMI 5 mM glucose + 10% dialyzed FBS, 0.0211 µM
[27] = RPMI 5 mM glucose + 10% dialyzed FBS, 0.0632 µM
[28] = RPMI 5 mM glucose + 10% dialyzed FBS, 0.19 µM
[29] = RPMI 5 mM glucose + 10% dialyzed FBS, 0.569 µM
[30] = RPMI 5 mM glucose + 10% dialyzed FBS, 1.71 µM
[31] = RPMI 5 mM glucose + 10% dialyzed FBS, 5.12 µM
[32] = RPMI 5 mM glucose + 10% dialyzed FBS, 15.4 µM
[33] = RPMI 5 mM glucose + 10% dialyzed FBS, 46.1 µM

SMILES	cell viability [1]	cell viability [2]	cell viability [3]	cell viability [4]	cell viability [5]	cell viability [6]	cell viability [7]	cell viability [8]	cell viability [9]	cell viability [10]	cell viability [11]	cell viability [12]	cell viability [13]	cell viability [14]	cell viability [15]	cell viability [16]	cell viability [17]	cell viability [18]	cell viability [19]	cell viability [20]	cell viability [21]	cell viability [22]	cell viability [23]	cell viability [24]	cell viability [25]	cell viability [26]	cell viability [27]	cell viability [28]	cell viability [29]	cell viability [30]	cell viability [31]	cell viability [32]	cell viability [33]
C[C@@H](O)[C@@H]1[C@H]2[C@@H](C)\C(=C(/N2C1=O)C(=O)OCOC(=O)C(C)(C)C)SC3CN(C3)/C4=N/CCS4	93.2%	93.2%	103%	111%	110%	113%	105%	102%	68.2%	60.8%	38.4%	92.3%	102%	113%	111%	101%	112%	101%	110%	109%	116%	104%	87.8%	106%	103%	119%	111%	126%	115%	120%	100%	84.5%	77.7%
C[C@@]12O[C@@H](C[C@]1(O)CO)n1c3ccccc3c3c4c(c5c6ccccc6n2c5c31)CNC4=O												106%	128%	102%	121%	119%	96.3%	77.3%	42.3%	39.9%	24.3%	5.7%	103%	118%	122%	138%	110%	99.6%	76.4%	50%	31.8%	27.4%	4.47%
CC(=O)CC(C1=CC=CC=C1)C/2=C(O)/C3=CC=CC=C3OC2=O (configuration not stated)	96.8%	126%	111%	129%	124%	132%	132%	128%	147%	143%	155%												109%	116%	128%	123%	120%	126%	127%	121%	124%	127%	129%
COC[C@@H](NC(C)=O)C(=O)NCc1ccccc1	112%	119%	117%	132%	116%	118%	114%	117%	107%	105%	86.7%	95.9%	110%	97%	102%	118%	109%	119%	104%	104%	112%	64.8%	106%	117%	116%	114%	125%	115%	125%	124%	131%	118%	69.5%
CC1(C)OC2CC3C4CC(F)C/5=C/C(=O)/C=C\C5(C)C4C(O)CC3(C)[C@@]2(O1)C(=O)CO (some centres not stated)	105%	111%	118%	119%	126%	117%	110%	124%	123%	124%	119%	113%	108%	102%	115%	121%	127%	116%	112%	117%	119%	119%	124%	113%	125%	122%	123%	150%	123%	138%	135%	119%	132%
O=C(O)c1ccc(-n2nc(-c3ccccc3O)nc2-c2ccccc2O)cc1	90%	97.1%	111%	90.6%	108%	113%	95.4%	86.4%	91.2%	74.7%	44.4%	94.9%	92.5%	93.5%	94%	104%	96.3%	93.5%	103%	96%	90.5%	29.8%	94.3%	103%	96.4%	89.2%	87%	88.4%	89.5%	94.3%	79.5%	68%	24.2%
O=C(NC[C@H](O)CN1CCc2ccccc2C1)c1cc(NC2COC2)ncn1	93.5%	117%	173%	29.5%	64.5%	99.2%	101%	72.7%	70.7%	56.1%	38.6%	92.9%	80.4%	88.2%	99.3%	83%	89.9%	94.4%	92.6%	84.3%	75.1%	74.2%	83.5%	92.8%	93.5%	101%	84.7%	91.8%	68.4%	66.4%	81.4%	67.3%	63.3%
Cn1cc(-c2ccc3nnc(C(F)(F)c4ccc5ncccc5c4)n3n2)cn1	115%	99.1%	97.5%	107%	101%	106%	105%	101%	95.4%	103%	69.3%	110%	106%	135%	109%	107%	106%	99.6%	94.9%	106%	96.6%	87.2%	87.3%	98.4%	111%	97.8%	99.2%	98.6%	119%	108%	99.5%	96.2%	81.3%
